The supplement of paper PMC11208160

test: recombinant barcode read abundance after kanamycin selection (control-corrected) (log10(CPM+1)); higher = more efficient recombination; sequences stand for … in AGTGCAGAGAAAATCGGCCAGTTTTCTCTGCCTGCAGTCCGCATGCCGT…AGATTTATGCAGCGGACTGCCTTTCTCCCAAAGTGATAAACCGGACAGTATCATGGACCGGTTTTCCCGGTAATCCGTATTTGCAAGGTTGGTTTCACT; site = the 11-nt target
Method in brief: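 In E. coli, a pooled library matched targets to IS621 bridge RNA target-binding loops and was introduced alongside a donor plasmid. Cells went onto chloramphenicol/ampicillin/kanamycin with 0.1 mM IPTG or onto chloramphenicol/ampicillin LB agar as control, in duplicate. Recombination efficiency, from recombinant-junction barcodes as counts per million, is averaged and control-corrected. It is reported as log10(CPM+1).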
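Also: IS621 recombinase and bridge RNA in Escherichia coli cells.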

| Sequence | recombinant barcode read abundance (log10) |
| --- | --- |
| TCAGGGACTTGGGTTCTAACCTGTTGCAG (site TCAGGGACTCT) | 2.45 |
| TCAGGGACTTGGGTTCTAACCTGTTGCAG (site TCGGGGACTCG) | 0.375 |
| TCAGGTACTTGGGTTCTAACCTGTTGCCT (site ACAGGTACTAG) | 0.0983 |
| TCAGGTACTTGGGTTCTAACCTGTTGCCT (site CCAGGTACTAG) | 0.0713 |
| TCAGGTACTTGGGTTCTAACCTGTTGCCT (site GCAGGTACTAG) | 0.0652 |
| TCAGGTACTTGGGTTCTAACCTGTTGCCT (site TCAGGTACTAG) | 0.163 |
| TCAGTATCTTGGGTTCTAACCTGTTGCCT (site TCAGAATCTAG) | 0.145 |
| TCAGTATCTTGGGTTCTAACCTGTTGCCT (site TCAGCATCTAG) | 0.533 |
| TCAGTATCTTGGGTTCTAACCTGTTGCCT (site TCAGGATCTAG) | 0.107 |
| TCAGTATCTTGGGTTCTAACCTGTTGCCT (site TCAGTATCTAG) | 1.4 |
| TCATCTCCTTGGGTTCTAACCTGTTGCCT (site ACATCTCCTAG) | 0.188 |
| TCATCTCCTTGGGTTCTAACCTGTTGCCT (site CCATCTCCTAG) | 0.0972 |
| TCATCTCCTTGGGTTCTAACCTGTTGCCT (site GCATCTCCTAG) | 0.0477 |
| TCATCTCCTTGGGTTCTAACCTGTTGCCT (site TCATCTCCTAG) | 0.092 |
| TCATGGGCTTGGGTTCTAACCTGTTGCAG (site AGGGTTCCTAA) | 0.457 |
| TCATGGGCTTGGGTTCTAACCTGTTGCAG (site TCATGGGCTCT) | 1.92 |
| TCCAAAGCTTGGGTTCTAACCTGTTGCTA (site TCCAAAGCTTA) | 0.249 |
| TCCAAAGCTTGGGTTCTAACCTGTTGCTA (site TCCCAAGCTTA) | 0.141 |
| TCCAAAGCTTGGGTTCTAACCTGTTGCTA (site TCCGAAGCTTA) | 0.294 |
| TCCAAAGCTTGGGTTCTAACCTGTTGCTA (site TCCTAAGCTTA) | 0.251 |
| TCCAACACTTGGGTTCTAACCTGTTGCGG (site TCCAAACCTCC) | 0.00935 |
| TCCAACACTTGGGTTCTAACCTGTTGCGG (site TCCAACACTCC) | 1.31 |

| Sequence | recombinant barcode read abundance (log10) |
| --- | --- |
| TCCAACCCTTGGGTTCTAACCTGTTGCGG (site TCAAACCCTCC) | 0.0107 |
| TCCAACCCTTGGGTTCTAACCTGTTGCGG (site TCCAACCCTCC) | 1.78 |
| TCCAACCCTTGGGTTCTAACCTGTTGCGG (site TCGAACCCTCC) | 0.108 |
| TCCAACCCTTGGGTTCTAACCTGTTGCGG (site TCTAACCCTCC) | 0.3 |
| TCCAAGACTTGGGTTCTAACCTGTTGCAG (site ACCAAGACTCG) | 0.00865 |
| TCCAAGACTTGGGTTCTAACCTGTTGCAG (site TCCAAGACTCT) | 1.72 |
| TCCAAGCCTTGGGTTCTAACCTGTTGCAG (site TCCAAACCTCT) | 0.694 |
| TCCAAGCCTTGGGTTCTAACCTGTTGCAG (site TCCAACCCTCT) | 0.0251 |
| TCCAAGCCTTGGGTTCTAACCTGTTGCAG (site TCCAAGCCTCT) | 0.747 |
| TCCAAGCCTTGGGTTCTAACCTGTTGCAG (site TCCAATCCTCT) | 0.39 |
| TCCAATCCTTGGGTTCTAACCTGTTGCAG (site TCCAAACCTCT) | 0.114 |
| TCCAATCCTTGGGTTCTAACCTGTTGCAG (site TCCAACCCTCT) | 0.0551 |
| TCCAATCCTTGGGTTCTAACCTGTTGCAG (site TCCAAGCCTCT) | 0.167 |
| TCCAATCCTTGGGTTCTAACCTGTTGCAG (site TCCAATCCTCT) | 0.381 |
| TCCACACCTTGGGTTCTAACCTGTTGCCT (site TCCACAACTAG) | 0.122 |
| TCCACACCTTGGGTTCTAACCTGTTGCCT (site TCCACACCTAG) | 0.63 |
| TCCACACCTTGGGTTCTAACCTGTTGCCT (site TCCACAGCTAG) | 0.0788 |
| TCCACACCTTGGGTTCTAACCTGTTGCCT (site TCCACATCTAG) | 0.0345 |
| TCCACAGCTTGGGTTCTAACCTGTTGCCT (site TCCACAACTAG) | 0 |
| TCCACAGCTTGGGTTCTAACCTGTTGCCT (site TCCACACCTAG) | 0.212 |
| TCCACAGCTTGGGTTCTAACCTGTTGCCT (site TCCACAGCTAG) | 0.784 |
| TCCACAGCTTGGGTTCTAACCTGTTGCCT (site TCCACATCTAG) | 0 |

| Sequence | recombinant barcode read abundance (log10) |
| --- | --- |
| TCCAGCACTTGGGTTCTAACCTGTTGCCT (site TCCAGCACTAG) | 0.412 |
| TCCAGCACTTGGGTTCTAACCTGTTGCCT (site TCTGGCACTAG) | 0 |
| TCCAGTACTTGGGTTCTAACCTGTTGCTT (site TCCAGTACTAA) | 0.0786 |
| TCCAGTACTTGGGTTCTAACCTGTTGCTT (site TCCGGTACTAA) | 0.0788 |
| TCCATAACTTGGGTTCTAACCTGTTGCCT (site GGGGCGTCTCA) | 0.0285 |
| TCCATAACTTGGGTTCTAACCTGTTGCCT (site TCCATAACTAG) | 0.14 |
| TCCATCCCTTGGGTTCTAACCTGTTGCCT (site TCAATCCCTAG) | 0.00792 |
| TCCATCCCTTGGGTTCTAACCTGTTGCCT (site TCCATCCCTAG) | 0.613 |
| TCCATCCCTTGGGTTCTAACCTGTTGCCT (site TCGATCCCTAG) | 0.0154 |
| TCCATCCCTTGGGTTCTAACCTGTTGCCT (site TCTATCCCTAG) | 0.116 |
| TCCCACTCTTGGGTTCTAACCTGTTGCCT (site TCACACTCTAG) | 0.158 |
| TCCCACTCTTGGGTTCTAACCTGTTGCCT (site TCCCACTCTAG) | 1.56 |
| TCCCACTCTTGGGTTCTAACCTGTTGCCT (site TCGCACTCTAG) | 0.0564 |
| TCCCACTCTTGGGTTCTAACCTGTTGCCT (site TCTCACTCTAG) | 0.0682 |
| TCCCAGTCTTGGGTTCTAACCTGTTGCTG (site TCCCAGTCTCA) | 0.635 |
| TCCCAGTCTTGGGTTCTAACCTGTTGCTG (site TCTCAGTCTCC) | 0.0317 |
| TCCCATACTTGGGTTCTAACCTGTTGCAT (site AGTGGACCTGG) | 0.2 |
| TCCCATACTTGGGTTCTAACCTGTTGCAT (site TCCCATACTAT) | 0.982 |
| TCCCATTCTTGGGTTCTAACCTGTTGCCT (site TCCCATACTAG) | 0.197 |
| TCCCATTCTTGGGTTCTAACCTGTTGCCT (site TCCCATCCTAG) | 0.03 |
| TCCCATTCTTGGGTTCTAACCTGTTGCCT (site TCCCATGCTAG) | 0.0488 |
| TCCCATTCTTGGGTTCTAACCTGTTGCCT (site TCCCATTCTAG) | 0.115 |

| Sequence | recombinant barcode read abundance (log10) |
| --- | --- |
| TCCCGAGCTTGGGTTCTAACCTGTTGCCT (site TCCCGAACTAG) | 0.435 |
| TCCCGAGCTTGGGTTCTAACCTGTTGCCT (site TCCCGACCTAG) | 0 |
| TCCCGAGCTTGGGTTCTAACCTGTTGCCT (site TCCCGAGCTAG) | 1.55 |
| TCCCGAGCTTGGGTTCTAACCTGTTGCCT (site TCCCGATCTAG) | 0.119 |
| TCCGAAACTTGGGTTCTAACCTGTTGCAT (site TCCGAAACTAT) | 1.15 |
| TCCGAAACTTGGGTTCTAACCTGTTGCAT (site TCTGAAACTAG) | 0.0197 |
| TCCGAGCCTTGGGTTCTAACCTGTTGCAT (site TCCGAGCCTAC) | 0.228 |
| TCCGAGCCTTGGGTTCTAACCTGTTGCAT (site TCCGAGCCTAT) | 1.98 |
| TCCGCTCCTTGGGTTCTAACCTGTTGCCT (site TCCGCTACTAG) | 0.177 |
| TCCGCTCCTTGGGTTCTAACCTGTTGCCT (site TCCGCTCCTAG) | 0.323 |
| TCCGCTCCTTGGGTTCTAACCTGTTGCCT (site TCCGCTGCTAG) | 0.215 |
| TCCGCTCCTTGGGTTCTAACCTGTTGCCT (site TCCGCTTCTAG) | 0.0907 |
| TCCGTACCTTGGGTTCTAACCTGTTGCCG (site TCCGTACCTCG) | 0.814 |
| TCCGTACCTTGGGTTCTAACCTGTTGCCG (site TCCGTCCCTCA) | 0.0904 |
| TCCGTCTCTTGGGTTCTAACCTGTTGCCA (site TCCGTCTCTCG) | 0.233 |
| TCCGTCTCTTGGGTTCTAACCTGTTGCCA (site TCCGTCTCTTG) | 0.692 |
| TCCGTCTCTTGGGTTCTAACCTGTTGCCG (site TCCGTCTCTCG) | 1.13 |
| TCCGTCTCTTGGGTTCTAACCTGTTGCCG (site TCCGTCTCTTG) | 0.0281 |
| TCCTAGTCTTGGGTTCTAACCTGTTGCCA (site GCCTAGTCTTG) | 0.405 |
| TCCTAGTCTTGGGTTCTAACCTGTTGCCA (site TCCTAGTCTTG) | 0.137 |
